Reference: ChEMBL document CHEMBL5390242, “Design, Synthesis, and Antitumor Efficacy of Substituted 2-Amino[1,2,4]triazolopyrimidines and Related Heterocycles as Dual Inhibitors for Microtubule Polymerization and Janus Kinase 2” (J Med Chem, 2023)
Activity calls are given as the source filed them. The rule behind the calls is not given here.

Assays:
[1] = system: HeLa; experiment: Antiproliferative activity against human HeLa cells assessed as cell growth inhibition incubated for 48 hrs by MTT assay; assay type: functional, cell-based
[2] = system: KP-4; experiment: Antiproliferative activity against human KP-4 cells assessed as cell growth inhibition incubated for 48 hrs by MTT assay; assay type: functional, cell-based; conditions: KP-4, 48 h
[3] = system: A549; experiment: Antiproliferative activity against human A549 cells assessed as cell growth inhibition incubated for 48 hrs by MTT assay; assay type: functional, cell-based; conditions: A549, 48 h
[4] = target: T1, Tyrosine-protein kinase JAK2 (Homo sapiens, UniProt O60674); experiment: Inhibition of JAK2 (unknown origin) using Poly-(Glu,Tyr 4:1) peptide as substrate at 1 uM in presence of ATP by ADP-Glo reagent based assay relative to control
[5] = system: BXPC-3; experiment: Antiproliferative activity against human BXPC-3 cells assessed as cell growth inhibition incubated for 48 hrs by MTT assay; assay type: functional, cell-based; conditions: BXPC-3, 48 h
[6] = system: MCF7; experiment: cells; conditions: Homo sapiens, MCF7, 48 h
Description: Antiproliferative activity against human MCF7 cells assessed as cell growth inhibition incubated for 48 hrs by MTT assay

[7] = system: A2780/Taxol; experiment: Antiproliferative activity against human A2780T cells assessed as cell growth inhibition incubated for 48 hrs by MTT assay; assay type: functional, cell-based
[8] = AUC (0 to t) in CD-1 mouse at 13 mg/kg,ip measured upto 24 hrs by HPLC-MS/MS analysis; assay type: ADME, organism-based; set-up: time < 24 hrs, dose 13 mg/kg, route ip; conditions: in vivo
[9] = AUC (0 to infinity) in CD-1 mouse at 13 mg/kg,ip measured upto 24 hrs by HPLC-MS/MS analysis; assay type: ADME, organism-based; set-up: time < 24 hrs, dose 13 mg/kg, route ip; conditions: in vivo
[10] = MRT (0 to t) in CD-1 mouse at 13 mg/kg,ip measured upto 24 hrs by HPLC-MS/MS analysis; assay type: ADME, organism-based; conditions: in vivo
[11] = MRT (0 to infinity) in CD-1 mouse at 13 mg/kg,ip measured upto 24 hrs by HPLC-MS/MS analysis; assay type: ADME, organism-based; conditions: in vivo
[12] = Half life in CD-1 mouse at 13 mg/kg,ip measured upto 24 hrs by HPLC-MS/MS analysis; assay type: ADME, organism-based; conditions: in vivo
[13] = Tmax in CD-1 mouse at 13 mg/kg,ip measured upto 24 hrs by HPLC-MS/MS analysis; assay type: ADME, organism-based; conditions: in vivo
[14] = Cmax in CD-1 mouse at 13 mg/kg,ip measured upto 24 hrs by HPLC-MS/MS analysis; assay type: ADME, organism-based; set-up: time < 24 hrs, dose 13 mg/kg, route ip; conditions: in vivo
[15] = system: A549; experiment: Antitumor activity against human A549 cells xenografted in Balb/c mouse assessed as tumor size at 50 mg/kg,ip administration measured after 31 days; assay type: functional; conditions: time 31 day
[16] = system: A549; experiment: Antitumor activity against human A549 cells xenografted in Balb/c mouse assessed as reduction in tumor weight at 50 mg/kg,ip administration measured after 31 days; assay type: functional; set-up: scale not given: the % may be the effect or the level left; conditions: time 31 day
[17] = system: A549; experiment: Antitumor activity against human A549 cells xenografted in Balb/c mouse assessed as increase in tumor necrotic cells at 50 mg/kg,ip administration measured after 31 days by Hematoxylin-eosin staining based microscopy; assay type: functional, organism-based; conditions: time 31.0 day
[18] = Toxicity in Balb/c mouse xenografted with human A549 cells assessed as change in body weight at 50 mg/kg,ip administration measured after 31 days; assay type: organism-based; conditions: in vivo, 744 h, time 31 day
[19] = Acute toxicity in C57BL/6 mouse assessed as maximum tolerated dose administered intravenously for 5 consecutive days; conditions: in vivo, route iv
[20] = target: T1, Tyrosine-protein kinase JAK2; experiment: Inhibition of JAK2 (unknown origin) using Poly-(Glu,Tyr 4:1) peptide as substrate in presence of ATP by ADP-Glo reagent based assay
[21] = target: Tubulin (Sus scrofa, UniProt P02554+P02550); experiment: Inhibition of porcine brain tubulin polymerization measured for 30 mins in presence of GTP by microplate reader assay; assay type: tissue-based
[22] = system: HCT-8; experiment: Antiproliferative activity against human HCT-8 cells assessed as cell growth inhibition incubated for 48 hrs by MTT assay; assay type: functional, cell-based; conditions: HCT-8, 48 h
[23] = Antiproliferative activity against human HCT-8/VCR cells assessed as cell growth inhibition incubated for 48 hrs by MTT assay; assay type: functional, cell-based
[24] = Resistance index, ratio of IC50 for antiproliferative activity against human HCT-8/VCR cells to IC50 for antiproliferative activity against human HCT-8 cells; assay type: functional
[25] = target: Tubulin beta (Homo sapiens) (UniProt P68371+Q9H4B7+Q13509+P04350+Q3ZCM7+P07437+Q13885+Q9BVA1+Q9BUF5+A6NNZ2); experiment: Binding affinity to beta-tubulin colchicine binding site in human A549 cells assessed as inhibition of EBI-beta-tubulin adduct band formation at 5 to 25 uM preincubated for 2 hrs followed by EBI addition measured after 1.5 hrs by EBI competition based Western blotting analysis; assay type: cell-based; conditions: dose 5-25 µM

T1 sequence (O60674 whole entry): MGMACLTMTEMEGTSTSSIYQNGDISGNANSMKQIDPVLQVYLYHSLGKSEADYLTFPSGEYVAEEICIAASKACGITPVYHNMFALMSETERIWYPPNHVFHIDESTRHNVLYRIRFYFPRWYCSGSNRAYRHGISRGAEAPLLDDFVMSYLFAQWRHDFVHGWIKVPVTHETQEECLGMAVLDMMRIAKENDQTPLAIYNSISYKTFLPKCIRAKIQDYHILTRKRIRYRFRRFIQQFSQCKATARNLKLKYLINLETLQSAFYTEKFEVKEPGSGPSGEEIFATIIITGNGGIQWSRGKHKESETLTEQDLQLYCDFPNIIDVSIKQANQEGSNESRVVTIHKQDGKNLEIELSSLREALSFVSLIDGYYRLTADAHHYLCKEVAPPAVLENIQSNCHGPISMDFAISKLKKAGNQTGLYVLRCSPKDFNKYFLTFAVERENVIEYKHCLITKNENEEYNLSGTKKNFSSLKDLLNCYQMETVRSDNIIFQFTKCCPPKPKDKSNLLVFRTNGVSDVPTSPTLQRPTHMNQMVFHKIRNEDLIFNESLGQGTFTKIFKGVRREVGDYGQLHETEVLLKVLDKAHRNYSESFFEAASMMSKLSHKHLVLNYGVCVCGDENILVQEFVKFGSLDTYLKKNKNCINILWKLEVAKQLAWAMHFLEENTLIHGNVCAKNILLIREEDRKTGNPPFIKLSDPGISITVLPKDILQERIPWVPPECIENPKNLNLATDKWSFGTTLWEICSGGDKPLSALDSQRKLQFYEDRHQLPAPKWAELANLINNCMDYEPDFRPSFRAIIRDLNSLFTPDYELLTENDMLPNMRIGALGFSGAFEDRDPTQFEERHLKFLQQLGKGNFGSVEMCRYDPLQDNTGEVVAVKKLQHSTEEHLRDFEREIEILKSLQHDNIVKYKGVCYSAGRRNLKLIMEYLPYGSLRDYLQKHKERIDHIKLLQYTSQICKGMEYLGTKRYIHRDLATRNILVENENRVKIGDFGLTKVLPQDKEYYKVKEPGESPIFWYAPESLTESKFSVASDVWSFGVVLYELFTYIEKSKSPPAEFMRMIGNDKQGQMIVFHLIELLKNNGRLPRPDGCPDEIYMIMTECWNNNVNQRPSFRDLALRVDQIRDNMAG

Row | Compound | IC50 [1] [nM] | IC50 [2] [nM] | IC50 [3] [nM] | inhibition [4] [%] | IC50 [5] [nM] | IC50 [6] [nM] | also measured
1 | COc1cc(-c2nccc3nc(Nc4ccc5ccn(C)c5c4)nn23)cc(OC)c1OC | 2170 | 7160 | > 10000 | 26 | 630 | 280 | 
2 | COc1ccc(Nc2nc3ccnc(-c4cc(OC)c(OC)c(OC)c4)n3n2)cc1O | 1060 | 3150 | 502 | 46 | 205 | 363 | 
3 | CC(=O)O[C@H]1C(=O)[C@@]2(C)[C@H]([C@H](OC(=O)c3ccccc3)[C@]3(O)C[C@H](OC(=O)[C@H](O)[C@@H](NC(=O)c4ccccc4)c4ccccc4)C(C)=C1C3(C)C)[C@]1(OC(C)=O)CO[C@@H]1C[C@@H]2O [PACLITAXEL] | 7 | 7 |  |  | 11 | 7 | IC50 [7]: 319 nM
4 | COc1cc(Nc2nc3ccnc(-c4cccc5[nH]ccc45)n3n2)cc(OC)c1OC | 982 | 714 | 1860 |  | 692 | 267 | 
5 | COc1cc(-c2nccc3nc(Nc4cccc5c4ccn5P(=O)([O-])[O-])nn23)cc(OC)c1OC.[Na+].[Na+] | 11 | 42 | 12 |  | 9 | 48 | AUC(0-t) at 24 h [8]: 850 ng·h/mL; AUC(0-inf) [9]: 908 ng·h/mL; MRT last at 24 h [10]: 1.8 h; MRT inf [11]: 2.4 h; half-life [12]: 1.8 h; Tmax [13]: 6 min; Cmax [14]: 334 ng/mL; Activity [15]: 204.6 mm3; Activity [16]: 91%; Activity [17]: Active; Activity [18]: Non-Toxic; MTD at 5 days [19]: 100 mg/kg
6 | COc1cc(-c2ccnc3nc(Nc4cccc5c4ccn5C)nn23)cc(OC)c1OC | 80 | 36 | 13 |  | 18 | 26 | 
7 | COc1ccc(Nc2nc3ccnc(-c4cc(OC)c(OC)c(OC)c4)n3n2)cc1N | 117 | 1800 | 201 | 86 | 176 | 189 | IC50 [20]: 326 nM; IC50 [21]: 4200 nM
8 | CC[C@]1(O)C[C@H]2CN(CCc3c([nH]c4ccccc34)[C@@](C(=O)OC)(c3cc4c(cc3OC)N(C=O)[C@H]3[C@@](O)(C(=O)OC)[C@H](OC(C)=O)[C@]5(CC)C=CCN6CC[C@]43[C@@H]65)C2)C1 [VINCRISTINE] |  |  |  |  |  |  | IC50 [22]: 173 nM; IC50 [23]: 2920 nM; Ratio IC50 [24]: 16.9; Activity [25]: inactive
9 | COc1cc(-c2cncc3nc(Nc4cccc5c4ccn5C)nn23)cc(OC)c1OC | 59 | 106 | 7150 |  | 38 | 25 | 
10 | COc1cc(-c2cccc3nc(Nc4cccc5[nH]ccc45)nn23)cc(OC)c1OC | 247 | 259 | 64 |  | 29 | 72 | 
11 | COc1cc(-c2nccc3nc(Nc4ccc5c(c4)[nH]c4ccccc45)nn23)cc(OC)c1OC | > 10000 | > 10000 | > 10000 |  | > 10000 | > 10000 | 
12 | COc1cc(-c2nccc3nc(Nc4ccc(C)c(O)c4)nn23)cc(OC)c1OC | 312 | 2180 | 354 | 46 | 355 | 326 | 
13 | COCOc1cc(Nc2nc3ccnc(-c4cc(OC)c(OC)c(OC)c4)n3n2)ccc1C | > 10000 | > 10000 | > 10000 |  | > 10000 | > 10000 | 
14 | COc1ccc(-c2ccc3nnc(Nc4cc(OC)c(OC)c(OC)c4)n3c2)cc1O | 11300 | 4670 | 3940 |  | 5960 | 3500 | 
15 | COc1cc(-c2nccc3nc(Nc4ccc5cc[nH]c5c4)nn23)cc(OC)c1OC | 209 | 610 | 85 | 29 | 107 | 256 | 
16 | COc1cc(-c2nccc3nc(Nc4ccc5c6ccccc6n(C)c5c4)nn23)cc(OC)c1OC | > 10000 | > 10000 | > 10000 |  | > 10000 | > 10000 | 
17 | COc1cc(-c2nccc3nc(Nc4cccc5ccn(C)c45)nn23)cc(OC)c1OC | > 10000 | > 10000 | > 10000 |  | > 10000 | > 10000 | 
18 | COc1cc(-c2nccc3nc(Nc4ccc5c(ccn5C)c4)nn23)cc(OC)c1OC | 202 | 938 | 92 | 77 | 40 | 64 | IC50 [20]: 544 nM; IC50 [21]: 15300 nM
19 | COc1cc(-c2nccc3nc(Nc4cccc5[nH]c6ccccc6c45)nn23)cc(OC)c1OC | > 10000 | > 10000 | > 10000 |  | > 10000 | > 10000 | 
20 | COc1cc(-c2nccc3nc(Nc4cccc5c4ccn5C)nn23)cc(OC)c1OC | 29 | 40 | 13 | 56 | 16 | 46 | IC50 [20]: 705 nM; IC50 [21]: 1600 nM
21 | COc1cc(-c2nccc3nc(Nc4ccc5c(c4)c4ccccc4n5C)nn23)cc(OC)c1OC | > 10000 | 2120 | 996 |  | > 10000 | > 10000 | 
22 | COCOc1cc(Nc2nc3ccnc(-c4cc(OC)c(OC)c(OC)c4)n3n2)ccc1OC | > 10000 | > 10000 | > 10000 |  | 3960 | 1500 | 
23 | COc1cc(-c2cncc3nc(Nc4cccc5[nH]ccc45)nn23)cc(OC)c1OC | 41 | 431 | 2530 |  | 88 | 26 | 
24 | COc1cc(-c2nccc3nc(Nc4cccc5cc[nH]c45)nn23)cc(OC)c1OC | 2580 | 1200 | 257 | 1.7 | 2410 | 325 | 
25 | COc1cc(-c2ccnc3nc(Nc4cccc5[nH]ccc45)nn23)cc(OC)c1OC | 166 | 70 | 85 |  | 23 | 35 | 
26 | COc1cc(-c2nccc3nc(Nc4ccc5[nH]ccc5c4)nn23)cc(OC)c1OC | 131 | 352 | 81 | 96 | 20 | 36 | IC50 [20]: 90 nM; IC50 [21]: 8800 nM
27 | COc1ccc(Nc2nc3ccnc(-c4cc(OC)c(OC)c(OC)c4)n3n2)cc1[N+](=O)[O-] | 593 | 5460 | 2400 |  | 1420 | 951 | 
